# Measured values as given in patent US20240268388A1, “AGRICULTURAL AND HORTICULTURAL FUNGICIDAL COMPOSITION” (NIPPON SODA CO., LTD., priority 2021, published 2024).
# Like-named read-outs stand apart in the source and are kept apart here.
# Key:
# [1] = system: cucumber anthracnose pathogen (Colletotrichum lagenarium); experiment: Fungicidal test for cucumber anthracnose (microplate, turbidity at 405 nm); assay type: cell-based; settings: for inhibition at 0.025 ppm / inhibition at 0.1 ppm / inhibition at 0.4 ppm: Colletotrichum orbiculare, read-out: growth inhibition rate
# Method: The compounds were dissolved in dimethyl sulfoxide to prepare a chemical agent solution.
# A mixture of the prescribed concentration of the chemical agent solution, cucumber anthracnose pathogen (Colletotrichum lagenarium) conidia, and Vogel medium was prepared on a microplate and incubated at 20° C. in the dark for 7 days.
# Each expected value was calculated using Colby's equation:
# [formula] • where E represents the expected value of the growth inhibition rate (%), M represents the growth inhibition rate (%) when the component (I) is used alone, and N represents the growth inhibition rate (%) when the component (II) is used alone.
# [2] = system: wheat leaf blight pathogen (Septoria tritici); experiment: Fungicidal test for wheat leaf blight (microplate, turbidity at 405 nm); assay type: cell-based; settings: for inhibition at 6.3 ppm / inhibition at 12.5 ppm / inhibition at 25 ppm / inhibition at 50 ppm / inhibition at 100 ppm: Zymoseptoria tritici, component (I) alone, read-out: growth inhibition rate; for growth inhibition rate: component (II) alone
# Method: Compounds of component (I) and component (II) were dissolved in dimethyl sulfoxide at 10,000 ppm and diluted with water to the prescribed concentration to prepare a chemical agent solution. A mixture of the prescribed concentration of the chemical agent solution, wheat leaf blight pathogen (Septoria tritici) conidia, and malt extract was prepared on a microplate and incubated at 20° C. in the dark for 3 days. The turbidity at a wavelength of 405 nm was measured with a microplate reader, and the growth of wheat leaf blight pathogen was compared with that of no treatment control to determine the growth inhibition rate. The results are shown in Tables 2 to 7, along with the expected values calculated as below.
# Each expected value was calculated from the fungicidal efficacy of a single application of the compound of component (I) and the fungicidal efficacy of a single application of compound of component (II) by using Colby's equation (S. R. Colby, Calculating synergistic and antagonistic responses of herbicide combinations, Weeds, 15, 20-22 pp (1967)).
# [formula] • where E represents the expected value of the growth inhibition rate (%) for the composition containing component (I) and component (II), M represents the growth inhibition rate (%) when the component (I) is used alone, and N represents the growth inhibition rate (%) when the component (II) is used alone. When the measured growth inhibition rate (%) for the composition containing component (I) and component (II) is greater than the expected value E, the composition containing components (I) and component (II) should exert a synergistic effect.
# [3] = system: soybean rust pathogen (Phakopsora pachyrhizi); experiment: Soybean rust control test (leaf discs); assay type: in vivo
# Method: Compounds of component (I) and component (II) were dissolved in dimethyl sulfoxide and diluted with water to the prescribed concentration to prepare a chemical agent solution. A mixture of the prescribed concentration of the chemical agent solution and sterile water was prepared on a microplate, and leaf discs cut from soybean leaves were floated on the microplate. Uredospores of soybean rust pathogen (Phakopsora pachyrhizi) were inoculated and incubated at 25° C. for 9 days. The area percentage of lesions was determined by observing uredospore-forming lesions on the leaf discs, and the control value was calculated. The control value was calculated by the following formula:
# Control value (%)=100−{Area percentage of lesions in treatment plot/Area percentage of lesions in untreatment plot}×100.
# The results are shown in Tables 8 to 18, along with the expected values calculated as below. Each expected values was calculated from the fungicidal efficacy of a single application of compound of component (I) and the fungicidal efficacy of a single application of compound of component (II) by using Colby's equation:
# [formula] • where E represents the expected value of the control value for the composition containing component (I) and component (II), M represents the control value (%) when the component (I) is used alone, and N represents the control value (%) when the component (II) is used alone. When the measured control value for the composition containing component (I) and component (II) is greater than the expected value E, the composition containing component (I) and composition (II) should exert a synergistic effect.
# [4] = component (I) alone, 0.0063 ppm
# [5] = Table 19, component (II) alone (component (I): None): Ipflufenoquin 0.000026, Iminoctadine trialbesilate 0.0032, Cyflufenamid 10, Cyprodinil 0.00013, Potassium bicarbonate 0.08, Thiophanate-methyl 0.08, Picarbutrazox 0.016, Fludioxonil 0.0032, Florylpicoxamid 0.0032, Metyltetraprole 0.08, Mefentrifluconazole 0.4 ppm
# [6] = Table 20, component (II) alone (component (I): None): Ipflufenoquin 0.00064, Iminoctadine trialbesilate 0.0032, Cyflufenamid 10, Cyprodinil 0.00013, Potassium bicarbonate 0.08, Thiophanate-methyl 0.4, Picarbutrazox 0.016, Fludioxonil 0.0032, Florylpicoxamid 0.0032, Metyltetraprole 0.08, Mefentrifluconazole 0.4 ppm
# [7] = Table 21, component (II) alone (component (I): None): Ipflufenoquin 0.00064, Iminoctadine trialbesilate 0.0032, Cyflufenamid 10, Cyprodinil 0.00013, Potassium bicarbonate 0.08, Thiophanate-methyl 0.4, Picarbutrazox 0.00064, Fludioxonil 0.0032, Florylpicoxamid 0.0032, Metyltetraprole 0.08, Mefentrifluconazole 0.4 ppm
# [8] = Table 22, component (II) alone (component (I): None): Ipflufenoquin 0.00064, Iminoctadine trialbesilate 0.0032, Cyflufenamid 10, Cyprodinil 0.00013, Potassium bicarbonate 0.08, Thiophanate-methyl 0.4, Picarbutrazox 0.00064, Fludioxonil 0.0032, Florylpicoxamid 0.0032, Metyltetraprole 0.08, Mefentrifluconazole 0.4 ppm
# [9] = Table 23, component (II) alone (component (I): None): Ipflufenoquin 0.00064, Iminoctadine trialbesilate 0.0032, Cyflufenamid 10, Cyprodinil 0.000026, Potassium bicarbonate 0.08, Thiophanate-methyl 0.4, Picarbutrazox 0.00064, Fludioxonil 0.00064, Florylpicoxamid 0.0032, Metyltetraprole 0.08, Mefentrifluconazole 0.4 ppm
# [10] = Table 24, component (II) alone (component (I): None): Ipflufenoquin 0.00064, Iminoctadine trialbesilate 0.0032, Cyflufenamid 10, Cyprodinil 0.00013, Potassium bicarbonate 0.08, Thiophanate-methyl 0.4, Picarbutrazox 0.00064, Fludioxonil 0.00013, Florylpicoxamid 0.0032, Metyltetraprole 0.08, Mefentrifluconazole 0.4 ppm
# [11] = Table 14, component (II) alone (component (I): None): Inpyrfluxam 0.00025, Chlorothalonil 0.006, Thiophanate-methyl 0.0001, Tebuconazole 0.000025, Trifloxystrobin 0.0001, Fluazinam 0.006, Prothioconazole 0.000025, Florylpicoxamid 0.0001, Metominostrobin 0.0004 ppm
# [12] = Table 15, component (II) alone (component (I): None): Azoxystrobin 0.0001, Inpyrfluxam 0.000025, Chlorothalonil 0.0063, Difenoconazole 0.000025, Cyproconazole 0.000025, Tebuconazole 0.000025, Trifloxystrobin 0.0001, Pyraclostrobin 0.0001, Fluazinam 0.0063, Fluxapyroxad 0.000025, Prothioconazole 0.000025, Florylpicoxamid 0.0001, Benzovindiflupyr 0.000025, Mancozeb 0.0063 ppm
# [13] = Table 16, component (II) alone (component (I): None): Inpyrfluxam 0.000025, Chlorothalonil 0.006, Thiophanate-methyl 0.0001, Tebuconazole 0.000025, Trifloxystrobin 0.0001, Fluazinam 0.006, Prothioconazole 0.000025, Florylpicoxamid 0.0001, Metominostrobin 0.0004 ppm
# [14] = Table 17, component (II) alone (component (I): None): Inpyrfluxam 0.000026, Chlorothalonil 0.02, Thiophanate-methyl 0.0004, Tebuconazole 0.0001, Trifloxystrobin 0.0001, Fluazinam 0.006, Prothioconazole 0.000025, Florylpicoxamid 0.0001, Metominostrobin 0.0004 ppm
# [15] = Table 18, component (II) alone (component (I): None): Azoxystrobin 0.0001, Inpyrfluxam 0.000025, Chlorothalonil 0.0063, Difenoconazole 0.000025, Cyproconazole 0.000025, Tebuconazole 0.000025, Trifloxystrobin 0.0001, Pyraclostrobin 0.0001, Fluazinam 0.0063, Fluxapyroxad 0.000025, Prothioconazole 0.000025, Florylpicoxamid 0.0001, Benzovindiflupyr 0.000025, Mancozeb 0.0063 ppm
molecule,measurement,setting,value
N#CCON=C1CN(C(=O)Cc2ccc(-c3noc(C(F)(F)F)n3)cc2)C1 [Compound 3],inhibition at 0.025 ppm,[1]; Compound 3 alone,26%
same,inhibition at 0.1 ppm,[1]; Compound 3 alone,9%
same,inhibition at 0.4 ppm,[1]; Compound 3 alone,84%
same,inhibition at 6.3 ppm,[2],32%
same,inhibition at 12.5 ppm,[2],41%
same,inhibition at 25 ppm,[2],42%
same,inhibition at 50 ppm,[2],44%
same,inhibition at 100 ppm,[2],49%
same,control value,[3]; [4],12%
same,control value,"[3]; component (I) alone, 0.025 ppm",22%
same,control value,"[3]; component (I) alone, 0.1 ppm",35%
same,control value,"[3]; component (I) alone, 0.4 ppm",85%
CCON=C1CN(C(=O)C(OC)c2ccc(-c3noc(C(F)(F)F)n3)cc2)C1 (stereo not shown) [Compound 5],inhibition at 0.025 ppm,[1]; Compound 5 alone,4%
same,inhibition at 0.1 ppm,[1]; Compound 5 alone,76%
same,inhibition at 0.4 ppm,[1]; Compound 5 alone,90%
same,inhibition at 6.3 ppm,[2],61%
same,inhibition at 12.5 ppm,[2],68%
same,inhibition at 25 ppm,[2],68%
same,inhibition at 50 ppm,[2],64%
same,inhibition at 100 ppm,[2],72%
same,control value,[3]; [4],7%
same,control value,"[3]; component (I) alone, 0.025 ppm",18%
same,control value,"[3]; component (I) alone, 0.1 ppm",46%
same,control value,"[3]; component (I) alone, 0.4 ppm",90%
CCON=C1CN(C(=O)C(C)c2ccc(-c3noc(C(F)(F)F)n3)cc2)C1 (stereo not shown) [Compound 6],inhibition at 0.025 ppm,[1]; Compound 6 alone,32%
same,inhibition at 0.1 ppm,[1]; Compound 6 alone,67%
same,inhibition at 0.4 ppm,[1]; Compound 6 alone,86%
same,inhibition at 6.3 ppm,[2],47%
same,inhibition at 12.5 ppm,[2],58%
same,inhibition at 25 ppm,[2],63%
same,inhibition at 50 ppm,[2],64%
same,inhibition at 100 ppm,[2],69%
same,control value,[3]; [4],19%
same,control value,"[3]; component (I) alone, 0.025 ppm",49%
same,control value,"[3]; component (I) alone, 0.1 ppm",76%
same,control value,"[3]; component (I) alone, 0.4 ppm",98%
"COc1ccnc(C(=O)N[C@@H](C)C(=O)O[C@@H](C)C(c2ccc(F)cc2)c2ccc(F)cc2)c1OC(C)=O [Florylpicoxamid, florylpicoxamid, reference compound]",growth inhibition rate,[1]; [5],0%
same,growth inhibition rate,[1]; [6],0%
same,growth inhibition rate,[1]; [7],0%
same,growth inhibition rate,[1]; [8],0%
same,growth inhibition rate,[1]; [9],0%
same,growth inhibition rate,[1]; [10],0%
same,growth inhibition rate,[2]; 0.001 ppm,80%
same,growth inhibition rate,[2]; .0002 ppm (also printed 0002),70%
same,control value,[3]; [11],27%
same,control value,[3]; [12],0%
same,control value,[3]; [13],27%
same,control value,[3]; [14],27%
same,control value,[3]; [15],0%
"Cc1nc2c(F)c(F)ccc2cc1Oc1cccc(F)c1C(C)(C)O [Ipflufenoquin, ipflufenoquin, reference compound]",growth inhibition rate,[1]; [5],0%
same,growth inhibition rate,[1]; [6],47%
same,growth inhibition rate,[1]; [7],47%
same,growth inhibition rate,[1]; [8],47%
same,growth inhibition rate,[1]; [9],47%
same,growth inhibition rate,[1]; [10],47%
same,growth inhibition rate,[2]; 0.06 ppm,6%
same,growth inhibition rate,[2]; 0.25 ppm,6%
same,growth inhibition rate,[2]; 1 ppm,22%
inpyrfluxam [reference compound],growth inhibition rate,[2]; 0.01 ppm,24%
same,growth inhibition rate,[2]; 0.04 ppm,49%
same,control value,[3]; [11],16%
same,control value,[3]; [12],50%
same,control value,[3]; [13],16%
same,control value,[3]; [14],16%
same,control value,[3]; [15],50%
mancozeb,growth inhibition rate,[2]; 0.004 ppm,9%
same,growth inhibition rate,[2]; 0.02 ppm,19%
same,growth inhibition rate,[2]; 0.06 ppm,19%
same,control value,[3]; [12],0%
same,control value,[3]; [15],0%
